Entries after “also recorded” stand apart in the source; their conditions may differ.
Assays:
[1] = tested on: human precision cut liver slices (PCLS); assay: Biomarker secretion from PCLS into culture medium (ELISA); type: cell-based; conditions: collagen1α1, fibronectin, hyaluronic acid, IL-6, MCP-1
Experimental: (§1) PCLS were obtained from 5 human donors who underwent resection of liver cancer. Replicate slices were collected from healthy margins of the resections and cultured for 4 or 6 days depending on the experimental protocol. In the Nonstimulation Protocol slices were cultured for 6 days and treated for the entire period with DMSO vehicle or 5 μM CRV431. In the Stimulation Protocol slices were rested for 1 day and then administered the cytokines, TGFβ and PDGF-BB, for 3 days to stimulate inflammation and fibrosis. DMSO vehicle, CRV431 (1 and 5 μM), Alk5i (10 μM), obeticholic acid (5 μM), elafibranor (5 μM), resmetirom (5 μM), and Aramchol (5 μM) were administered individually as drug treatments in the Stimulation Protocol concurrent with TGFβ+PDGF-BB. Culture medium treatments were replaced daily.
(a) Biomarker secretion. Spent culture medium was collected daily from duplicate slices for each treatment. ELISAs were used to quantify secretion of monocyte chemoattractant protein (MCP-1), interleukin-6 (IL-6), tissue inhibitor of metalloproteinase-1 (TIMP1), hyaluronic acid, fibronectin, and collagen 1α1. For each donor the mean level of biomarker secretion in each treatment group was expressed as a percentage change relative to DMSO vehicle, the percentages averaged for all donors, and finally the mean daily percentage change calculated from all days of evaluation. […]

[2] = tested on: Huh7 hepatocellular carcinoma cells; conditions: 4 days, strongest with 0.37 μM daunorubicin and CRV431 1-4 μM
Experimental: HepG2 hepatocellular carcinoma cell lines and Huh7 hepatocellular carcinoma cell lines were plated in 96 well plates at subconfluent densities. The chemotherapy compound, daunorubicin, and CRV431 were applied alone or in combination at the indicated concentrations in duplicate wells for each treatment. After 4 days incubation, cell viability was assessed with Cell Titer Glo 2.0.

[3] = tested on: human precision cut liver slices (PCLS); assay: RNA-Seq of PCLS, Stimulation Protocol (TGFb/PDGF + CRV vs TGFb/PDGF + Vehicle); type: cell-based
Experimental: as §1
(d) Gene expression by RNA-Seq. RNA sequencing of the complete transcriptome (30 million reads per sample) was conducted on vehicle and 5 μM CRV431 treatment groups from 3 donors both from the Nonstimulation and Stimulation Protocols. Data were analyzed by bioinformatics software programs to identify genes that were differentially expressed between vehicle and CRV431 treatments.
For the evaluation done for (d), 12 samples corresponding to 3 different donor slides which underwent 4 different treatments were studied. the comparisons carried out in this analysis are: (1) TGFb/PDGF+CRV vs TGFb/PDGF+Vehicle (V), and (2) Non-stimulated+CRV vs Non-stimulated+Vehicle.
Heatmaps were also generated to plot significant differently expressed genes for the comparison TGFb/PDGF+CRV and TGFb/PDGF+Vehicle (p-adjust<0.05, log fold change>0.5). The heatmap with the samples grouped by group is shown in FIG. 3A to observe the different expression pattern present within the group (blue=vehicle; red=CRV). The same significant genes were also plotted into another heatmap (FIG. 3B) but the samples are now plotted grouped by donor in order to observe the differences between donors (blue=vehicle; red=CRV).
Significant differently expressed genes that were identified in the comparison TGFb/PDGF+CRV and TGFb/PDGF+Vehicle ([…], log fold change>0.5) are shown in Table 2. The fold change is relative to the treatment (CRV).
As shown in the PCA analysis, there is a strong effect of the donor. Therefore, each donor was analyzed individually. Counts comparison was performed for TGFb/PDGF+[…] vs TGFb/PDGF+Vehicle by donor. […] Therefore the vehicle group had at least 300 copies less than CRV treatment. In other words, the treatment had at least 300 copies more than the Vehicle. After doing this selection individually for each donor, a venn diagram was plotted showing the overlapping between all three donors.
So, they had at least 300 copies less in the CRV treatment compared to the vehicle. After doing the selection individually for each donor, a venn diagram was plotted showing the overlapping between all three donors.

[4] = TGFb/PDGF + CRV vs TGFb/PDGF + Vehicle, 5 μM
[5] = presence of exogenous TGFβ+PDGF-BB, all donors

SMILES: CC[C@@H]1NC(=O)[C@H]([C@H](O)[C@H](C)CCCCCCNC(C)=O)N(C)C(=O)[C@H](C(C)C)N(C)C(=O)[C@H](CC(C)C)N(C)C(=O)[C@H](CC(C)C)N(C)C(=O)[C@@H](C)NC(=O)[C@H](C)NC(=O)[C@H](CC(C)C)N(C)C(=O)[C@H](C(C)C)NC(=O)[C@H](CC(C)C)N(C)C(=O)[C@@H](C)N(C)C1=O [CRV431]
- secretion of inflammation and fibrosis biomarkers [1]: reduced secretion of collagen1α1, fibronectin, hyaluronic acid, IL-6, and MCP-1; also recorded: decreased the mean daily secretion and gene expression of all markers
- effect on cytotoxicity of daunorubicin [2]: increased the cytotoxicity of daunorubicin
- log2FoldChange, gene AC009053.1 [3, 4]: 1.194
- log2FoldChange, gene AC134772.2 [3, 4]: −4.561
- log2FoldChange, gene ADH1B [3, 4]: 2.156
- log2FoldChange, gene ADH1C [3, 4]: 1.869
- log2FoldChange, gene ADH4 [3, 4]: 2.123
- log2FoldChange, gene ADH6 [3, 4]: 1.903
- log2FoldChange, gene ADIRF [3, 4]: 1.402
- log2FoldChange, gene APLNR [3, 4]: 0.844
- log2FoldChange, gene ASPG [3, 4]: 0.91
- log2FoldChange, gene ATP13A4 [3, 4]: −3.082
- log2FoldChange, gene C7 [3, 4]: 0.739
- log2FoldChange, gene CA11 [3, 4]: −1.573
- log2FoldChange, gene CBFA2T2 [3, 4]: 1.299
- log2FoldChange, gene CD93 [3, 4]: −0.613
- log2FoldChange, gene CHST1 [3, 4]: −1.087
- log2FoldChange, gene COL5A3 [3, 4]: −0.842
- log2FoldChange, gene CXADR [3, 4]: 1.61
- log2FoldChange, gene CYP4A11 [3, 4]: 1.611
- log2FoldChange, gene CYP26A1 [3, 4]: −1.283
- log2FoldChange, gene CYP26B1 [3, 4]: −0.656
- log2FoldChange, gene DCHS1 [3, 4]: −0.686
- log2FoldChange, gene DLL4 [3, 4]: −0.69
- log2FoldChange, gene DUOX2 [3, 4]: −2.182
- log2FoldChange, gene DVL1 [3, 4]: 0.635
- log2FoldChange, gene ENSG00000283623 (symbol NA) [3, 4]: −5.759
- log2FoldChange, gene ERVK13-1 [3, 4]: −1.125
- log2FoldChange, gene ESAM [3, 4]: −0.573
- log2FoldChange, gene ESM1 [3, 4]: −1.401
- log2FoldChange, gene ESR1 [3, 4]: 3.688
- log2FoldChange, gene F2RL3 [3, 4]: −0.711
- log2FoldChange, gene GLYATL1 [3, 4]: 1.438
- log2FoldChange, gene GPR4 [3, 4]: −0.9
- log2FoldChange, gene GRAP [3, 4]: −0.772
- log2FoldChange, gene HIST2H2AA4 [3, 4]: −7.504
- log2FoldChange, gene IGHV4-61 [3, 4]: 7.957
- log2FoldChange, gene IGLON5 [3, 4]: −0.851
- log2FoldChange, gene ISLR2 [3, 4]: −1.27
- log2FoldChange, gene KDM6A [3, 4]: 0.785
- log2FoldChange, gene LAMA4 [3, 4]: −0.939
- log2FoldChange, gene LIMS3 [3, 4]: −1.705
- log2FoldChange, gene LOXL2 [3, 4]: −0.948
- log2FoldChange, gene MCAM [3, 4]: −0.841
- log2FoldChange, gene MEF2C [3, 4]: −1.013
- log2FoldChange, gene MEG3 [3, 4]: −0.853
- log2FoldChange, gene MRC2 [3, 4]: −0.773
- log2FoldChange, gene MROH2A [3, 4]: 3.641
- log2FoldChange, gene MT-CO1 [3, 4]: −0.85
- log2FoldChange, gene NID2 [3, 4]: −0.755
- log2FoldChange, gene NXPH4 [3, 4]: −0.808
- log2FoldChange, gene PAN2 [3, 4]: 1.019
- log2FoldChange, gene PANK3 [3, 4]: 0.687
- log2FoldChange, gene PCDH12 [3, 4]: −0.741
- log2FoldChange, gene PHF8 [3, 4]: 0.709
- log2FoldChange, gene PKLR [3, 4]: 2.127
- log2FoldChange, gene PLXNA2 [3, 4]: 1.326
- log2FoldChange, gene POU6F1 [3, 4]: −1.716
- log2FoldChange, gene PPP1R16B [3, 4]: −1.016
- log2FoldChange, gene RALGPS2 [3, 4]: 0.836
- log2FoldChange, gene RBMXL1 [3, 4]: −8.265
- log2FoldChange, gene RCCD1 [3, 4]: −1.838
- log2FoldChange, gene RHCG [3, 4]: −0.927
- log2FoldChange, gene RPS7P1 [3, 4]: 2.668
- log2FoldChange, gene SLC4A8 [3, 4]: −2.641
- log2FoldChange, gene SLC26A6 [3, 4]: −0.692
- log2FoldChange, gene SLC39A5 [3, 4]: 1.92
- log2FoldChange, gene SMC5 [3, 4]: 0.799
- log2FoldChange, gene STRA6 [3, 4]: −1.639
- log2FoldChange, gene STX16 [3, 4]: 1.025
- log2FoldChange, gene TDO2 [3, 4]: 0.916
- log2FoldChange, gene TMEM70 [3, 4]: 1.062
- log2FoldChange, gene TTYH2 [3, 4]: −1.114
- log2FoldChange, gene UBD [3, 4]: −1.035
- log2FoldChange, gene VWA8 [3, 4]: 1.514
- log2FoldChange, gene ZC3H10 [3, 4]: 1.022
- log2FoldChange, gene ZDHHC20 [3, 4]: 1.207
- log2FoldChange, gene ZNF461 [3, 4]: 1.391
- expression of fibrosis-related genes by RNA-Seq ([3]; collagen genes, collagen hydroxylases and oxidases, ACTA2, VEGF, TIMPs): decreased expression of many fibrosis-related genes
- fold change in RNA, DUOX2 [3, 5]: −4.5 fold
- fold change in RNA, ESM1 [3, 5]: −2.6 fold
- fold change in RNA, LOXL2 [3, 5]: −1.9 fold
- fold change in RNA, RCCD1 [3, 5]: −3.6 fold
- fold change in RNA, STRA6 [3, 5]: −3.1 fold
- fold change in RNA, UBD/FAT10 [3, 5]: −2.0 fold
